Experiments:
A/M2-G34E = A/M2-G34E (Influenza A virus, UniProt P0DOF5, G34E); assay type: cell-based, Influenza virus A/Udorn/72
A/M2-V27A [1] = target: T1, A/M2-V27A (Influenza A virus, UniProt P0DOF5, V27A); assay type: cell-based, Influenza virus A/Udorn/72
A/M2-A30T = A/M2-A30T (Influenza A virus, UniProt P0DOF5, A30T); assay type: cell-based, Influenza virus A/Udorn/72
A/M2-L26F = A/M2-L26F (Influenza A virus, UniProt P0DOF5, L26F); assay type: cell-based, Influenza virus A/Udorn/72
A/M2-S31N = A/M2-S31N (Influenza A virus, UniProt P0DOF5, S31N); assay type: cell-based, Influenza virus A/Udorn/72
A/M2-V27G = A/M2-V27G (Influenza A virus, UniProt P0DOF5, V27G); assay type: cell-based, Influenza virus A/Udorn/72
[2] = test system: influenza virus, containing the A/M2-V27A mutation; assay type: cell-based
A/M2-V27A [3] = target: T1, A/M2-V27A; assay type: cell-based

Structure (SMILES) | % remaining activity after application of 100 μM compound (A/M2-G34E) [%] | % remaining activity after application of 100 μM compound (A/M2-V27A [1]) [%] | % remaining activity after application of 100 μM compound (A/M2-A30T) [%] | % remaining activity after application of 100 μM compound (A/M2-L26F) [%] | % remaining activity after application of 100 μM compound (A/M2-S31N) [%] | % remaining activity after application of 100 μM compound (A/M2-V27G) [%] | inhibition of plaque formation (in words) [2] | inhibition of the mutant (in words) (A/M2-S31N) | concentration at which plaque formation was reduced [2] [µM] | AM2 V27A % inhibition at 100 μM (A/M2-V27A [3])
NC12CC3CC(CC(C3)C1)C2 [Amantadine, reference compound] | 100.4 ± 6.7 | 93.07 ± 1.9 | 104.6 ± 4.3 | 51.8 ± 3.5 | 65.3 ± 2.7 | 95 ± 4.9 | failed to inhibit plaque formation | – | – | –
CNC1CCC2(CCCCC2)CC1.Cl [Compound 9] | 101.7 ± 2.8 | 70.2 ± 1.55 | 101. ± 3.2 | 72.6 ± 8.4 | 100 ± 4.1 | 89.6 ± 4.1 | – | – | – | –
Cl.NC1CCC2(CCCCC2)CC1 [Compound 8] | 96. ± 5.9 | 46.6 ± 6.6 | 98.1 ± 7.0 | 32.4 ± 3.3 | 99.1 ± 0.9 | 87.9 ± 6.1 | – | little inhibition | 5 | –
Cl.NNC1CCC2(CCCCC2)CC1 [Compound 31, N′-Spiro[5.5]undec-3-yl-hydrazinium chloride] | – | – | – | – | – | – | – | – | – | 31 (7.1%)
NC1CSC2(CCCCCC2)SC1 [Compound 34, 1,5-Dithia-spiro[5.6]dodec-3-yl-ammonium chloride] | – | – | – | – | – | – | – | – | – | 33 (0%) 34 (46.9%)
N=C(N)NC1CCC2(CCCCC2)CC1 [Compound 35] | – | – | – | – | – | – | – | – | – | 35 (14.6%)
Cl.NC1CSC2(CCCCC2)SC1 [Compound 33, 1,5-Dithia-spiro[5.5]undec-3-yl-ammonium chloride] | – | – | – | – | – | – | – | – | – | 33 (0%) 34 (46.9%)
C1CCC2(CC1)CCN(C1=NCCN1)CC2 [BL-1743, 3-(4,5-Dihydro-1H-imidazol-2-yl)-3-aza-spiro[5.5]undecane, reference compound] | 89.8 ± 6.9 | 97.4 ± 1.8 | 102 ± 2.3 | 89.2 ± 4.8 | 100 ± 0.67 | 82.9 ± 9.3 | failed to inhibit plaque formation | – | – | –
